# Assay results taken from patent US20090233845A1, “Methods and compositions for non-covalently enhanced receptor binding” (priority 2008, published 2009).
# Test system: NIH/3T3 cells
# Test: Mitogenic assay on FGF-2-responsive cells (heparin control test, CellTiter AQueous One, OD 490 nm)
# Type: cell-based
# Protocol: We developed a mitogenic assay on cells responsive to FGF-2. The assay is run in the presence of a submaximal concentration of FGF-2 (10 ng/mL). […] At 72 h of incubation in the presence of 10 ng/mL of FGF-2, the addition of 10 μg/mL of heparin increased mitogenic activity by 58%.
# Organic compounds of the invention may be assayed for their effect on FGF-2 stimulation of growth using this assay. […] For example, a “hit” can be defined as an increase in activity of >50%, in the presence of 10 ng/mL FGF-2 (with no added heparin).
# The details of the assay are as follows.
# 1. Trypsinize cells. Remove a small aliquot of cell suspension for cell count and viability.
# 4. Transfer 80 μL of cell suspension to the appropriate wells of three 96-well tissue culture-treated plates.
# 5. Incubate plates at 37° C./5% CO2 for 18 hr.
# Add 80 μL/well DMEM/0.1% BCS/1% Pen-Strep (0.1% BCS media), and incubate cells for 24 hr at 37° C./5% CO2.
# A mass of 20 mg of heparin was dissolved in 2.0 mL of 0.1% BCS media for a final concentration of 10 mg/mL.
# Preparation of 10× Heparin Solution: The 10 mg/mL heparin solution was diluted to 100 μg/mL by adding 50 μL of the 10 mg/mL solution to 4,950 μL of 0.1% BCS media.
# A 1:10 intermediate dilution was prepared by adding 10 μL of 100 μg/mL FGF-2 stock to 90 μL of 1×PBS/0.5% BSA, for a final concentration of 10 μg/mL.
# Preparation of 10×FGF-2: The 1:10 intermediate was further diluted by adding 50 μL to 4,950 μL of 0.1% BCS media, for a final concentration of 100 ng/mL. The 100 ng/mL FGF-2 solution was diluted by adding 500 μL to 4,500 μL of 0.1% BCS media, for a final concentration of 10 ng/mL.
# 6. 5× Heparin/FGF-2 Dilutions: Mix equal volumes of 10×FGF-2 (Steps 3 and 4) and 10× heparin stocks (Step 5) to create the 5× Treatment Intermediates as shown in Tables 3 and 4.
# Add 20 μL of CellTiter AQueous One Solution to each of the treated wells.
# Incubate for 1 hr at 37° C./5% CO2.
# [1] = heparin 0.001 μg/mL, 1 ng/mL FGF-2, 24 hr
# [2] = heparin 0.001 μg/mL, 1 ng/mL FGF-2, 48 hr
# [3] = heparin 0.001 μg/mL, 1 ng/mL FGF-2, 72 hr
# [4] = heparin 0.001 μg/mL, 10 ng/mL FGF-2, 24 hr
# [5] = heparin 0.001 μg/mL, 10 ng/mL FGF-2, 48 hr
# [6] = heparin 0.001 μg/mL, 10 ng/mL FGF-2, 72 hr
# [7] = heparin 0.01 μg/mL, 1 ng/mL FGF-2, 24 hr
# [8] = heparin 0.01 μg/mL, 1 ng/mL FGF-2, 48 hr
# [9] = heparin 0.01 μg/mL, 1 ng/mL FGF-2, 72 hr
# [10] = heparin 0.01 μg/mL, 10 ng/mL FGF-2, 24 hr
# [11] = heparin 0.01 μg/mL, 10 ng/mL FGF-2, 48 hr
# [12] = heparin 0.01 μg/mL, 10 ng/mL FGF-2, 72 hr
# [13] = heparin 0.1 μg/mL, 1 ng/mL FGF-2, 24 hr
# [14] = heparin 0.1 μg/mL, 1 ng/mL FGF-2, 48 hr
# [15] = heparin 0.1 μg/mL, 1 ng/mL FGF-2, 72 hr
# [16] = heparin 0.1 μg/mL, 10 ng/mL FGF-2, 24 hr
# [17] = heparin 0.1 μg/mL, 10 ng/mL FGF-2, 48 hr
# [18] = heparin 0.1 μg/mL, 10 ng/mL FGF-2, 72 hr
# [19] = heparin 1 μg/mL, 1 ng/mL FGF-2, 24 hr
# [20] = heparin 1 μg/mL, 1 ng/mL FGF-2, 48 hr
# [21] = heparin 1 μg/mL, 1 ng/mL FGF-2, 72 hr
# [22] = heparin 1 μg/mL, 10 ng/mL FGF-2, 24 hr
# [23] = heparin 1 μg/mL, 10 ng/mL FGF-2, 48 hr
# [24] = heparin 1 μg/mL, 10 ng/mL FGF-2, 72 hr
# [25] = heparin 10 μg/mL, 1 ng/mL FGF-2, 24 hr
# [26] = heparin 10 μg/mL, 1 ng/mL FGF-2, 48 hr
# [27] = heparin 10 μg/mL, 1 ng/mL FGF-2, 72 hr
# [28] = heparin 10 μg/mL, 10 ng/mL FGF-2, 24 hr
# [29] = heparin 10 μg/mL, 10 ng/mL FGF-2, 48 hr
# [30] = heparin 10 μg/mL, 10 ng/mL FGF-2, 72 hr
substance,measurement,setting,value
"FGF-2: basic fibroblast growth factor (bFGF, FGF-2), receptor-binding ligand",Mean OD490,"1 ng/mL FGF-2, 0 μg/mL heparin, 24 hr",0.465
same,Mean OD490,"1 ng/mL FGF-2, 0 μg/mL heparin, 48 hr",0.197
same,Mean OD490,"1 ng/mL FGF-2, 0 μg/mL heparin, 72 hr",0.199
same,Mean OD490,"10 ng/mL FGF-2, 0 μg/mL heparin, 24 hr",0.898
same,Mean OD490,"10 ng/mL FGF-2, 0 μg/mL heparin, 48 hr",0.661
same,Mean OD490,"10 ng/mL FGF-2, 0 μg/mL heparin, 72 hr",0.381
same,Mean OD490,"assay control, 10 ng/mL FGF-2, 24 hr",0.884
same,Mean OD490,"assay control, 10 ng/mL FGF-2, 48 hr",0.737
same,Mean OD490,"assay control, 10 ng/mL FGF-2, 72 hr",0.401
Heparin,Mean OD490,[1],0.477
same,Percent Difference from 0 μg/mL Heparin Mean OD490,[1],2.6%
same,Mean OD490,[2],0.222
same,Percent Difference from 0 μg/mL Heparin Mean OD490,[2],12.7%
same,Mean OD490,[3],0.208
same,Percent Difference from 0 μg/mL Heparin Mean OD490,[3],4.5%
same,Mean OD490,[4],0.912
same,Percent Difference from 0 μg/mL Heparin OD490,[4],1.6%
same,Mean OD490,[5],0.641
same,Percent Difference from 0 μg/mL Heparin OD490,[5],−3.0%
same,Mean OD490,[6],0.416
same,Percent Difference from 0 μg/mL Heparin OD490,[6],9.2%
same,Mean OD490,[7],0.430
same,Percent Difference from 0 μg/mL Heparin Mean OD490,[7],−7.5%
same,Mean OD490,[8],0.200
same,Percent Difference from 0 μg/mL Heparin Mean OD490,[8],1.5%
same,Mean OD490,[9],0.199
same,Percent Difference from 0 μg/mL Heparin Mean OD490,[9],0.0%
same,Mean OD490,[10],0.859
same,Percent Difference from 0 μg/mL Heparin OD490,[10],−4.3%
same,Mean OD490,[11],0.641
same,Percent Difference from 0 μg/mL Heparin OD490,[11],−3.0%
same,Mean OD490,[12],0.417
same,Percent Difference from 0 μg/mL Heparin OD490,[12],9.4%
same,Mean OD490,[13],0.419
same,Percent Difference from 0 μg/mL Heparin Mean OD490,[13],−9.9%
same,Mean OD490,[14],0.226
same,Percent Difference from 0 μg/mL Heparin Mean OD490,[14],14.7%
same,Mean OD490,[15],0.199
same,Percent Difference from 0 μg/mL Heparin Mean OD490,[15],0.0%
same,Mean OD490,[16],0.863
same,Percent Difference from 0 μg/mL Heparin OD490,[16],−3.9%
same,Mean OD490,[17],0.830
same,Percent Difference from 0 μg/mL Heparin OD490,[17],25.6%
same,Mean OD490,[18],0.459
same,Percent Difference from 0 μg/mL Heparin OD490,[18],20.5%
same,Mean OD490,[19],0.398
same,Percent Difference from 0 μg/mL Heparin Mean OD490,[19],−14.4%
same,Mean OD490,[20],0.202
same,Percent Difference from 0 μg/mL Heparin Mean OD490,[20],2.5%
same,Mean OD490,[21],0.212
same,Percent Difference from 0 μg/mL Heparin Mean OD490,[21],6.5%
same,Mean OD490,[22],0.938
same,Percent Difference from 0 μg/mL Heparin OD490,[22],4.5%
same,Mean OD490,[23],0.978
same,Percent Difference from 0 μg/mL Heparin OD490,[23],48.0%
same,Mean OD490,[24],0.583
same,Percent Difference from 0 μg/mL Heparin OD490,[24],53.0%
same,Mean OD490,[25],0.433
same,Percent Difference from 0 μg/mL Heparin Mean OD490,[25],−6.9%
same,Mean OD490,[26],0.196
same,Percent Difference from 0 μg/mL Heparin Mean OD490,[26],−0.5%
same,Mean OD490,[27],0.188
same,Percent Difference from 0 μg/mL Heparin Mean OD490,[27],−5.5%
same,Mean OD490,[28],1.071
same,Percent Difference from 0 μg/mL Heparin OD490,[28],19.3%
same,Mean OD490,[29],0.992
same,Percent Difference from 0 μg/mL Heparin OD490,[29],50.1%
same,Mean OD490,[30],0.602
same,Percent Difference from 0 μg/mL Heparin OD490 (increase in mitogenic activity),[30],58.0%
same,Percent Difference from 0 μg/mL Heparin OD490 (increase in mitogenic activity),"heparin 10 μg/mL, 10 ng/mL FGF-2, 72 hr, listed as heparin",58%
same,FGF-2 activity in the presence of heparin,"increasing concentrations of heparin, FIG. 18",increased with increasing concentrations of heparin
